Assay results published in patent US4002733A, “Sunscreening compositions” (Minnesota Mining and Manufacturing Company, priority 1974, dated 1977).

Test: UV absorption of the product in solution (absorption maximum, Epsilon value)
Format: physicochemical
Details: solvent not stated

With `CCC(=O)c1ccc(NC(=O)CCCCCCCCC(=O)Nc2ccc(C(=O)CC)cc2)cc1` [Example 4] the absorption maxima was 292 nm and the “molar extinction coefficient (Epsilon value)” value was 48,000.
